Assay results from PubChem BioAssay (NCI).
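Grown in 96-well plates, cells were treated for 48 hours with each compound at five concentrations. Insufficient inhibition: endpoint recorded as highest concentration tested. GI50 marks 50% less growth. The concentration for full growth arrest is given as TGI.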

How the values were obtained:
Test in all cases: NCI tumour cell line growth inhibition, 48 h
[1] = tested on: NCI-H522 lung
[2] = tested on: MDA-MB-435
[3] = tested on: MDA-MB-231 breast
[4] = tested on: HL-60(TB) leukemia
[5] = tested on: HCT-116 colon
[6] = tested on: HS 578T breast
[7] = tested on: UACC-62 melanoma
[8] = tested on: RPMI-8226 leukemia
[9] = tested on: TK-10 renal
[10] = tested on: SF-539 CNS
[11] = tested on: DU-145 prostate
[12] = tested on: IGROV1 ovarian
[13] = tested on: OVCAR-3 ovarian
[14] = tested on: HT29 colon
[15] = tested on: CCRF-CEM leukemia
[16] = tested on: RXF 393 renal
[17] = tested on: T-47D breast
[18] = tested on: MALME-3M melanoma
[19] = tested on: OVCAR-5 ovarian
[20] = tested on: SNB-19 CNS
[21] = tested on: SNB-75 CNS
[22] = tested on: ACHN renal
[23] = tested on: UO-31 renal
[24] = tested on: SK-MEL-5 melanoma
[25] = tested on: SN12C renal
[26] = tested on: SF-295 CNS
[27] = tested on: SF-268 CNS
[28] = tested on: K-562 leukemia
[29] = tested on: LOX IMVI melanoma
[30] = tested on: SR leukemia
[31] = tested on: SK-MEL-2 melanoma
[32] = tested on: HCC-2998 colon
[33] = tested on: U251 CNS
[34] = tested on: HOP-92 NSCLC
[35] = tested on: A549 NSCLC
[36] = tested on: PC-3 prostate
[37] = tested on: NCI-H23 lung
[38] = tested on: UACC-257 melanoma
[39] = tested on: HOP-62 NSCLC
[40] = tested on: M14 melanoma
[41] = tested on: COLO 205 colon
[42] = tested on: CAKI-1 renal
[43] = tested on: OVCAR-4 ovarian
[44] = tested on: SK-MEL-28 melanoma
[45] = tested on: HCT-15 colon
[46] = tested on: A498 renal
[47] = tested on: NCI/ADR-RES ovarian
[48] = tested on: OVCAR-8 ovarian
[49] = tested on: NCI-H226 lung
[50] = tested on: EKVX NSCLC
[51] = tested on: KM12 colon
[52] = tested on: MCF7 breast
[53] = tested on: MOLT-4 leukemia
[54] = tested on: SW-620 colon

In the case of `O=C(Nc1ccc(-n2ccc3c(NC(=O)c4ccccc4)ncnc32)cc1)Nc1cccc(Cl)c1Cl`, the GI50 [1] is reported as 972 nM, the TGI [1] is reported as 3110 nM and the GI50 [2] is reported as 1530 nM. The TGI [2] was 8640 nM, the GI50 [3] was 1020 nM and the TGI [3] was 3050 nM. For the same molecule, the GI50 [4] was 13600 nM, the TGI [4] was greater than 50000 nM and the GI50 [5] was 673 nM. It also gave a TGI [5] of 2380 nM, a GI50 [6] of 856 nM and a TGI [6] of 2600 nM. The GI50 [7] was 1020 nM, the TGI [7] was 3290 nM and the GI50 [8] was 646 nM. It also gave a TGI [8] of 2760 nM, a GI50 [9] of 1010 nM and a TGI [9] of 2340 nM. It also gave a GI50 [10] of 1120 nM, a TGI [10] of 5690 nM and a GI50 [11] of 1470 nM. It also gave a TGI [11] of 3850 nM, a GI50 [12] of 1060 nM and a TGI [12] of 3390 nM. It also gave a GI50 [13] of 1190 nM, a TGI [13] of 2750 nM and a GI50 [14] of 808 nM. It also gave a TGI [14] of 2110 nM, a GI50 [15] of 531 nM and a TGI [15] of 3210 nM. For the same molecule, the GI50 [16] was 796 nM, the TGI [16] was 1790 nM and the GI50 [17] was 2170 nM. For the same molecule, the TGI [17] was 9220 nM, the GI50 [18] was 1040 nM and the TGI [18] was 4130 nM. The GI50 [19] was 1040 nM, the TGI [19] was 2840 nM and the GI50 [20] was 1440 nM. For the same molecule, the TGI [20] was 5840 nM, the GI50 [21] was 777 nM and the TGI [21] was 2710 nM. It also gave a GI50 [22] of 1350 nM, a TGI [22] of 4060 nM and a GI50 [23] of 786 nM. The TGI [23] was 1560 nM, the GI50 [24] was 1350 nM and the TGI [24] was 9990 nM. The GI50 [25] was 1080 nM, the TGI [25] was 2320 nM and the GI50 [26] was 2220 nM. For the same molecule, the TGI [26] was greater than 50000 nM, the GI50 [27] was 1100 nM and the TGI [27] was 3130 nM. The GI50 [28] was 985 nM, the TGI [28] was 6040 nM and the GI50 [29] was 763 nM. It also gave a TGI [29] of 2040 nM, a GI50 [30] of 659 nM and a TGI [30] of 2920 nM. It also gave a GI50 [31] of 1330 nM, a TGI [31] of 3880 nM and a GI50 [32] of 2990 nM. It also gave a TGI [32] of 19900 nM, a GI50 [33] of 571 nM and a TGI [33] of 1400 nM. For the same molecule, the GI50 [34] was 847 nM, the TGI [34] was 2480 nM and the GI50 [35] was 952 nM. The TGI [35] was 2220 nM, the GI50 [36] was 582 nM and the TGI [36] was 1570 nM. It also gave a GI50 [37] of 1640 nM, a TGI [37] of 11000 nM and a GI50 [38] of 2150 nM. It also gave a TGI [38] of 7700 nM, a GI50 [39] of 983 nM and a TGI [39] of 2150 nM. The GI50 [40] was 973 nM, the TGI [40] was 2110 nM and the GI50 [41] was 1750 nM. It also gave a TGI [41] of 7970 nM, a GI50 [42] of 3840 nM and a TGI [42] of 24900 nM. For the same molecule, the GI50 [43] was 878 nM, the TGI [43] was 1910 nM and the GI50 [44] was 990 nM. It also gave a TGI [44] of 2450 nM, a GI50 [45] of 156 nM and a TGI [45] of 5420 nM. For the same molecule, the GI50 [46] was 752 nM, the TGI [46] was 2040 nM and the GI50 [47] was 1580 nM. For the same molecule, the TGI [47] was 7290 nM, the GI50 [48] was 1070 nM and the TGI [48] was 2600 nM. It also gave a GI50 [49] of 1070 nM, a TGI [49] of 4870 nM and a GI50 [50] of 1300 nM. For the same molecule, the TGI [50] was 4590 nM, the GI50 [51] was 1150 nM and the TGI [51] was 6570 nM. It also gave a GI50 [52] of 1120 nM, a TGI [52] of 5810 nM and a GI50 [53] of 1710 nM. The TGI [53] was greater than 50000 nM, the GI50 [54] was 998 nM and the TGI [54] was 2360 nM.
